The values that follow come from US20130203084A1, “SPECIFIC DETECTION OF HUMAN CHORIONIC GONADOTROPIN BETA SUBUNIT TYPE II PRODUCED BY TROPHOBLASTIC AND NEOPLASTIC CELLS” (Universite Paris Descartes, priority 2010, published 2013).

This assay relates to binding of 125I-HCGβ to monoclonal antibody FBT11-II. The assay can be described thus: Competitive inhibition assay with synthetic peptides (125I-HCGβ tracer). The conditions noted are these: increasing concentrations of unlabeled peptide; 4° C. for 18 h; FIG. 2. How it is done: Competitive inhibition assays were performed as previously described (20). Briefly, ^125I labelled HCGβ was employed as the tracer. All experiments were performed in 50 mM phosphate buffer, pH 7.5, containing 154 mM NaCl, 0.02% sodium azide, and 1% bovine serum albumin. First, we determined the dilution of FBT11-II which produced a 50% binding to ^125I-HCGβ (30,000 cpm) in the absence of peptide. Then, competitive inhibition assays were performed with the defined dilution of antibody. Displacement curves were generated in the presence of increasing concentrations of unlabeled peptides as follows: 100 μl of ^125I—HCGIβ, 100 μl of monoclonal antibody, and 50 μl of the competitive inhibitor were incubated simultaneously at 4° C. for 18 h. The antigen-antibody complex was then precipitated by adding normal human serum diluted (1:3) in phosphate buffer (100 μl) and 1 ml of 20% polyethylene glycol. After centrifugation, the pellet was counted.
Since it was previously shown that FBT11 recognizes residues 1 through 7 and 82 through 92 of the free HCGβ subunit (20), in this study we examined whether the differences in the N-terminal sequence of HCGβ altered the recognition of FBT11-II. We performed inhibition assays with peptides spanning residues 1 through 7 to determine mAb FBT11-II specificity. We used three peptides analogous to sequences 1-7 of HCGβ encoded by type I gene (SREMLRP, SEQ ID NO: 4), 1-7 of HCGβ encoded by type II genes (SKEPLRP, SEQ ID NO: 3) and 1-7 of LHβ (SREPLRP, SEQ ID NO: 5) (FIG. 2). First, we determined the dilution of FBT11-II which produced a 50% binding to ^125I-HCGβ in the absence of peptide. Then, competitive inhibition assays were performed with the defined dilution of antibody. Displacement curves were generated in the presence of increasing concentrations of unlabeled peptides.
As to “SKEPLRP (Synthetic 7-mer peptides corresponding to residues 1 through 7 of HCGbeta encoded by type II genes beta3, beta5 and beta8)”, the “Inhibition of 125I-HCGβ binding to antibody FBT11-II (displacement of bound tracer)” value (from here on “Inhibition … (displacement of bound tracer)”) was “highest potency”.

For “SREMLRP (Synthetic 7-mer peptides corresponding to residues 1 through 7 of HCGbeta encoded by type I gene beta7)”, the “Inhibition … (displacement of bound tracer)” value is on record as “unable to inhibit”.

On to “SREPLRP (Synthetic 7-mer peptides corresponding to residues 1 through 7 of the LHbeta gene)”, for which the “Inhibition … (displacement of bound tracer)” value was “to a lesser degree than SKEPLRP”.
